{"source": "patent US20220120753A1", "about": "“METHOD FOR DETERMINING PROGNOSIS OF CANCER” (The University of Tokyo, priority 2018, published 2022)", "molecules": {"B1": {"name": "wild-type FLAG-Fbxo22 (Wt) (other)", "chain": "MEPVGCCGECRGSSVDPRSTFVLSNLAEVVERVLTFLPAKALLRVACVCRLWRECVRRVLRTHRSVTWISAGLAEAGHLEGHCLVRVVAEELENVRILPHTVLYMADSETFISLEECRGHKRARKRTSMETALALEKLFPKQCQVLGIVTPGIVVTPMGSGSNRPQEIEIGESGFALLFPQIEGIKIQPFHFIKDPKNLTLERHQLTEVGLLDNPELRVVLVFGYNCCKVGASNYLQQVVSTFSDMNIILAGGQVDNLSSLTSEKNPLDIDASGVVGLSFSGHRIQSATVLLNEDVSDEKTAEAAMQRLKAANIPEHNTIGFMFACVGRGFQYYRAKGNVEADAFRKFFPSVPLFGFFGNGEIGCDRIVTGNFILRKCNEVKDDDLFHSYTTIMALIHLGSSK", "notes": "Dox-induced expression in MCF-7 cells; The tag is placed first by the order in the name; not shown: FLAG tag"}, "B2": {"name": "Estrogen receptor α (ERα) (receptor, UniProt P03372 1-595, looked up)", "chain": "MTMTLHTKASGMALLHQIQGNELEPLNRPQLKIPLERPLGEVYLDSSKPAVYNYPEGAAYEFNAAAAANAQVYGQTGLPYGPGSEAAAFGSNGLGGFPPLNSVSPSPLMLLHPPPQLSPFLQPHGQQVPYYLENEPSGYTVREAGPPAFYRPNSDNRRQGGRERLASTNDKGSMAMESAKETRYCAVCNDYASGYHYGVWSCEGCKAFFKRSIQGHNDYMCPATNQCTIDKNRRKSCQACRLRKCYEVGMMKGGIRKDRRGGRMLKHKRQRDDGEGRGEVGSAGDMRAANLWPSPLMIKRSKKNSLALSLTADQMVSALLDAEPPILYSEYDPTRPFSEASMMGLLTNLADRELVHMINWAKRVPGFVDLTLHDQVHLLECAWLEILMIGLVWRSMEHPGKLLFAPNLLLDRNQGKCVEGMVEIFDMLLATSSRFRMMNLQGEEFVCLKSIILLNSGVYTFLSSTLKSLEEKDHIHRVLDKITDTLIHLMAKAGLTLQQQHQRLAQLLLILSHIRHMSNKGMEHLYSMKCKNVVPLYDLLLEMLDAHRLHAPTSRGGASVEETDQSHLATAGSTSSHSLQKYYITGEAEGFPATV", "notes": "Endogenous ERα in MCF-7 nuclear extract or cell lysate; also called ERalpha"}}, "key": {"ERα": {"tested_on": "ERα", "test": "ChIP-Seq analysis of ERα binding in MCF-7 cells", "type": "cell-based, human", "conditions": "2 hours, E2 line = E2 (10 nM), 4-OHT line = E2+4-OHT", "description": "Thereafter, DNA was extracted using a DNA purification column."}, "[1]": {"tested_on": "ERα complex with KDM4B and SRC-3", "procedure": "(§1) Using total RNA derived from individual cells recovered over time, qPCR was carried out. […] Using total RNA prepared from the treated cells, qPCR was carried out. […] Using the nucleus extract, immunoprecipitation and immunoblotting were carried out.\nThe obtained cells were immunostained with anti-FLAG antibodies. Representative images are shown.\n(§2) Total RNA was prepared from the cells treated with various drugs, and qPCR was carried out.\nImmunoprecipitation and immunoblotting were carried out according to the method described in Johmura et al., Molecular Cell 55: 73-84, 2014. The cells were dissolved in a TBSN buffer (20 mM Tris-Cl (pH 8.0), 150 mM NaCl, 0.5% NP-40, 5 mM EGTA, 1.5 mM EDTA, and 0.5 mM Na3VO4). The obtained cell lysate was centrifuged at 4° C. at 15,000×g for 20 minutes, and was then used in immunoprecipitation using an antibody.\nRegarding immunoprecipitation of ERα and KDM4B, a nuclear extract was prepared according to the method described in Hirokawa et al., Cancer Res. 74: 3880-3889, 2014. Cell pellets were suspended in buffer A (10 mM Hepes-KOH pH 7.9, 10 mM KCl, 1.5 mM MgCl2, 0.5 mM DTT, 0.5 mM PMSF, and protease inhibitor cocktail (Nakalai Tesque)) having five times the volume of the cell pellets, and the suspension was then incubated on ice for 5 minutes. Thereafter, the cells were centrifuged at 4° C. at 500×g for 5 minutes, and the obtained cell pellets were then suspended in buffer A having two times the volume of the cell pellets for homogenization. The homogenized cell suspension was centrifuged at 4° C. at 4,000×g for 5 minutes, and a cell nucleus was recovered in a precipitate. To the recovered nucleus, an equal amount of buffer B (20 mM Hepes-KOH pH 7.9, 600 mM KCl, 1.5 mM MgCl2, 0.2 mM EDTA, 25% glycerol, 0.5 mM DTT, 0.5 mM PMSF, and protease inhibitor cocktail) was added and suspended, and the obtained mixture was then blended at 4° C. for 30 minutes, using a rotator. The nuclear extract was centrifuged at 4° C. at 16,000×g for 15 minutes, and was then recovered in a supernatant. The nuclear extract was dialyzed against buffer C (20 mM Hepes-KOH pH 7.9, 100 mM KCl, 0.2 mM EDTA, 20% glycerol, 0.5 mM DTT, and 0.5 mM PMSF). After completion of the dialysis, the nuclear extract was centrifuged at 4° C. at 16,000×g for 30 minutes, and the remaining precipitate was then eliminated.\nA protein (20 to 50 μg) was separated from the total cell lysate by SDS-PAGE, and was then transferred into a PVDF membrane (Millipore), which was then used in immunoblotting using various types of antibodies."}, "[2]": {"tested_on": "ERα-dependent transcription", "test": "qPCR of ERα target gene transcripts (EBAG9, GREB1) in MCF-7 cells", "type": "cell-based, human", "conditions": "for effect of removing Fbxo22 on the antagonistic activity: MCF-7 expressing Dox-induced shRNAs, E2 6 h then drug 12 h", "procedure": "as §1\nUsing total RNA prepared from the cells over time, qPCR was carried out.\nas §2\nThe cells were washed with PBS three times, and were then cultured in phenol red-non-added DMEM (supplemented with 5% charcoal-stripped FBS) for 72 hours.\nQuantitative RT-PCR was carried out according to the method described in Johmura et al., Molecular Cell 55: 73-84, 2014. Total RNA was extracted using ISOGEN II (Wako), and using this as a template, cDNA was synthesized using SuperScript II cDNA synthesis kit (Invitrogen). PCR amplification was carried out in a 96-well optical reaction plate, using Power SYBR Green PCR Master Mix (Applied Biosystems). The relative expression ratio of individual genes was normalized with respect to the expression level of GAPDH."}, "[3]": {"biological_target": "B2", "test": "anti-FLAG co-IP and immunoblot, MCF-7 cells expressing FLAG-Fbxo22 Wt or domain-deficient mutants (FIG. 3G)"}, "KDM4B [4]": {"biological_target": "T1, KDM4B (UniProt O94953 1-1096)", "T1 construct": "Endogenous KDM4B in MCF-7 nuclear extract or cell lysate; also called histone lysine demethylase KDM4B", "T1 sequence (looked up)": "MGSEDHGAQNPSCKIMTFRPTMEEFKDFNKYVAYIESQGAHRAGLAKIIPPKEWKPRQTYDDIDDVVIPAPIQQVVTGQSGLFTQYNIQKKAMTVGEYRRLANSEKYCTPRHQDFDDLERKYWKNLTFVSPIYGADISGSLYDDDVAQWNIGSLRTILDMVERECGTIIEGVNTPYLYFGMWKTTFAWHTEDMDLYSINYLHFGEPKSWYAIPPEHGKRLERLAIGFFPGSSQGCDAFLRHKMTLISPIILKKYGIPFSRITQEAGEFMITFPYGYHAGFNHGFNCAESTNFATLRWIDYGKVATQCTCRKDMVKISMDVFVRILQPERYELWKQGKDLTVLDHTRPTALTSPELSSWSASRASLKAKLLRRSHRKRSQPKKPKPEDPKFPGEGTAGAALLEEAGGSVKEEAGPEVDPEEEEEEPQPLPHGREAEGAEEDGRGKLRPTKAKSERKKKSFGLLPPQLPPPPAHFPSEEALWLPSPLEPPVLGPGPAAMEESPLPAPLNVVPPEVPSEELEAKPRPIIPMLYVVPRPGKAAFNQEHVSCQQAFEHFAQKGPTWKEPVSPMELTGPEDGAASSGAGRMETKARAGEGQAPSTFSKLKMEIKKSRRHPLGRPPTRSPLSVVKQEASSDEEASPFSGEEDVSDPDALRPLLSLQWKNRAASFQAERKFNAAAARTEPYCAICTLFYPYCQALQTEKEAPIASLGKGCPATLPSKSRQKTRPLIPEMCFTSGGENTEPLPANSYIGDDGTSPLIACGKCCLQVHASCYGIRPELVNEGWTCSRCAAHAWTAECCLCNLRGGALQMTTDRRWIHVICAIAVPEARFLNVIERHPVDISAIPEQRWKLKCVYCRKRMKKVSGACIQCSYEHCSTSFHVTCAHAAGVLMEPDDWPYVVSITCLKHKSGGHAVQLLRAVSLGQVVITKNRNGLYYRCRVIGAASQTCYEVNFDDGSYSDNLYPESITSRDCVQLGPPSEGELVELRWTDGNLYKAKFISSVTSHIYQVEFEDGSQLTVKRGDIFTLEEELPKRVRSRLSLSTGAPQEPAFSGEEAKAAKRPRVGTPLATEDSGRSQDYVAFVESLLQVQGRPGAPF", "test": "co-IP and immunoblot, E2-depleted MCF-7 cells with MG132 and 0.1, 1 or 10 nM E2 (FIG. 3I)"}, "KDM4B [5]": {"biological_target": "T1, KDM4B", "test": "co-IP (IP: ER) and immunoblot, MCF-7 nuclear extract after E2 (FIG. 2B)"}, "N-CoR repressor": {"biological_target": "T2, N-CoR repressor (UniProt O75376 1-2440, limits assumed)", "T2 construct": "Endogenous corepressor in MCF-7 nuclear extract", "T2 sequence (O75376 whole entry)": "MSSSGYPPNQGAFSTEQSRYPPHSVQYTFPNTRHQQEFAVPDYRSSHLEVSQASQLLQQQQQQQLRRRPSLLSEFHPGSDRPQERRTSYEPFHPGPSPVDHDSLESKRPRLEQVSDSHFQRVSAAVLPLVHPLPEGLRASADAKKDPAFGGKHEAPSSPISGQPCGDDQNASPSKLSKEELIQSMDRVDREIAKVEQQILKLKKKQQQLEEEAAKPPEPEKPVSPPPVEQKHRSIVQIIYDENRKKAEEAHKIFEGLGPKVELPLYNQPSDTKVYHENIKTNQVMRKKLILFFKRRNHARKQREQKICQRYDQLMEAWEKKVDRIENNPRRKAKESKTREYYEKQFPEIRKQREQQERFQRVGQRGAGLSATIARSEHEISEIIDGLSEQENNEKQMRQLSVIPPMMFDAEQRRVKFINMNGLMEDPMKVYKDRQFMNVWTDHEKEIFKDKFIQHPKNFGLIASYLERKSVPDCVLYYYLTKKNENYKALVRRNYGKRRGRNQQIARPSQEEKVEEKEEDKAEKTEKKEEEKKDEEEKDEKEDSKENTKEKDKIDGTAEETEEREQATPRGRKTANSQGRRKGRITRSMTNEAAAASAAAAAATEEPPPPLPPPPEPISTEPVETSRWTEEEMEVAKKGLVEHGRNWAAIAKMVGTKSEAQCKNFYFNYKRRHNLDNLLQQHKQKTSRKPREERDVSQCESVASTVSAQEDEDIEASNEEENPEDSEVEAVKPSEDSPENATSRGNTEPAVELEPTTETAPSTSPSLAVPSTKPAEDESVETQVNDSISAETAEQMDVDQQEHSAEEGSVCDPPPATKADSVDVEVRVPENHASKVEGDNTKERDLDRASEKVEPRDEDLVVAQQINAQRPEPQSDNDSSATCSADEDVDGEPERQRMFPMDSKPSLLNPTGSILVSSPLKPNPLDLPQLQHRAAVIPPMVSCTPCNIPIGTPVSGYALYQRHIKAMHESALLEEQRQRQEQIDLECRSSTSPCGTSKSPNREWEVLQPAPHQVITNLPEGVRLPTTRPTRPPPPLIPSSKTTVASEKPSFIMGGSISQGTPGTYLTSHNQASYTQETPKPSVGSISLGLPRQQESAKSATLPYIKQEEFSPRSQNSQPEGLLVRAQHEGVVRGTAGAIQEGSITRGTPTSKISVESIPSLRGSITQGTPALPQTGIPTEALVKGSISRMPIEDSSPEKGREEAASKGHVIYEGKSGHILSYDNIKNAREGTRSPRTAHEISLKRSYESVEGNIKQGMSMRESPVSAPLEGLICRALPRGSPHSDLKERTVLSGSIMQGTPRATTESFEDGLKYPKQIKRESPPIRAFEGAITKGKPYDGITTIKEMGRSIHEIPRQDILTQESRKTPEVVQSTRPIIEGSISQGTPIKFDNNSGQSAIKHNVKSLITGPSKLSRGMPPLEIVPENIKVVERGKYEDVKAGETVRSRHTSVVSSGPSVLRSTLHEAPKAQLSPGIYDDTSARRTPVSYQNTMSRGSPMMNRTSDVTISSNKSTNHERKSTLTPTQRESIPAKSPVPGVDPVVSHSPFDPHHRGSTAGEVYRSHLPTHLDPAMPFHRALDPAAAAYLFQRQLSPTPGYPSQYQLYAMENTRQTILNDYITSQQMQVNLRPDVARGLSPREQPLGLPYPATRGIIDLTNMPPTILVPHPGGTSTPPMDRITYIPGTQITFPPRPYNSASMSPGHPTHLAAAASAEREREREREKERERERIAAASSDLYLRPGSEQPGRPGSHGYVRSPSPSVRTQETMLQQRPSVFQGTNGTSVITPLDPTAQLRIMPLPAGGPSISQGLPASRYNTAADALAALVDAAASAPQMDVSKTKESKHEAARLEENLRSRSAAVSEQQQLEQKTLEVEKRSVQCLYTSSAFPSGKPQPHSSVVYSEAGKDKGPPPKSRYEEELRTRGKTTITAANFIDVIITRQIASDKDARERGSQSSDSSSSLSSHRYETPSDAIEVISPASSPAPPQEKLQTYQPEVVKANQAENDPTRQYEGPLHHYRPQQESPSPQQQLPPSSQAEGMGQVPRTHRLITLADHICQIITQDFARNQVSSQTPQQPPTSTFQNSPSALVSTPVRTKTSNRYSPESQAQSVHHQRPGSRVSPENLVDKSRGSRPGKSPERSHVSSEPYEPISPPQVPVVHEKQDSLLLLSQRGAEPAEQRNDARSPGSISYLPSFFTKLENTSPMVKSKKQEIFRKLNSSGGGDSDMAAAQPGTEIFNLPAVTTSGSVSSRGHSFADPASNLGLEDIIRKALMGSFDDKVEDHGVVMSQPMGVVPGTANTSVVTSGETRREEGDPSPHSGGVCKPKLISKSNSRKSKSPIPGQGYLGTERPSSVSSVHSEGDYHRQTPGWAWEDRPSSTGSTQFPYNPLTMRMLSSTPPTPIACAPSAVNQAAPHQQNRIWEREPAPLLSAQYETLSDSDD", "test": "co-IP and immunoblot, control MCF-7 nuclear extract after E2 then 4-OHT (FIG. 5B)"}}, "note": "Peptide text beside a SMILES is read from it. * marks the point of attachment. Cbz = O=C(OCc1ccccc1)*", "data": [{"molecule": "C[C@]12CC[C@@H]3c4ccc(O)cc4CC[C@H]3[C@@H]1CC[C@@H]2O", "note": "[E2, Estradiol]", "values": [{"measurement": "ERα accumulation peaks detected", "setting": "ERα; Fbxo22-depleted MCF-7 cells", "value": "23,213"}, {"measurement": "ERα accumulation peaks detected", "setting": "ERα; wild-type/control MCF-7 cells", "value": "1,264"}]}, {"molecule": "C[C@]12CC[C@@H]3c4ccc(O)cc4C[C@@H](CCCCCCCCC[S+]([O-])CCCC(F)(F)C(F)(F)F)[C@H]3[C@@H]1CC[C@@H]2O", "note": "(stereo partly shown) [Fulvestrant]", "values": [{"measurement": "need of Fbxo22 for the dynamics of cofactors in treated cells", "setting": "[1]; MCF-7, E2 plus drug", "value": "not necessary"}, {"measurement": "effect of removing Fbxo22 on the antagonistic activity", "setting": "[2]", "value": "no effects"}]}, {"molecule": "CC(C)C[C@@H](C=O)NC(=O)[C@H](CC(C)C)NC(=O)[C@H](CC(C)C)NC(=O)OCc1ccccc1", "note": "[MG132] (Cbz-Leu-Leu-Leu-aldehyde)", "values": [{"measurement": "dynamics of cofactors (complex dissociation, N-CoR binding) after 4-OHT", "setting": "[1]; MCF-7, E2+4-OHT+MG132", "value": "suppressed"}, {"measurement": "dissociation of KDM4B and SRC-3 from ERα by elimination of E2", "setting": "[1]; MCF-7, E2 depletion plus proteasome inhibitor", "value": "suppressed"}, {"measurement": "E2-induced transcriptional activity of EBAG9 and GREB1 after removal of E2", "setting": "[2]; MCF-7, E2 removed from medium, proteasome inhibitor added", "value": "recovered"}, {"measurement": "transcript levels of EBAG9 and GREB1 after treatment with 4-OHT", "setting": "[2]; MCF-7, E2 then 4-OHT, in the presence of MG132 (10 μg/ml) compared with absence", "value": "maintained at high levels"}]}, {"molecule": "CN(C)CCOc1ccc(/C(=C(/CCCl)c2ccccc2)c2ccccc2)cc1", "note": "[Toremifene]", "values": [{"measurement": "effect of removing Fbxo22 on the antagonistic activity", "setting": "[2]", "value": "effects similar to those on 4-OHT"}]}, {"molecule": "B1", "values": [{"measurement": "binding result", "setting": "[3]", "value": "binds"}, {"measurement": "binding result", "setting": "KDM4B [4]", "value": "binds"}]}, {"molecule": "B2", "values": [{"measurement": "binding result", "setting": "KDM4B [5]", "value": "binds"}, {"measurement": "binding result", "setting": "N-CoR repressor", "value": "binds"}]}]}
